Test results taken from patent US4241069A, “3-Methylene flavanones and 3-methylene chromanones” (Miles Laboratories, Inc., priority 1979, dated 1980).
Values after ≈ are worked out from the molar mass of the structure shown.

Tests used:
A. fumigatus NRRL 163 = test: MIC, agar incorporation method; format: cell-based; conditions: 32° C., 48-72 hours; for MIC: Aspergillus fumigatus, NRRL163, NRRL 163, read-out: Minimal Inhibitory Concentration
Protocol: (§1) The compounds of the present invention were tested for their ability to inhibit the growth of microorganisms by in vitro tests. Generally the in vitro tests involve growing representative microorganisms under conditions favorable to such growth and measuring the effectiveness of one or more compounds in inhibiting or destroying the growth of the microorganisms. The microorganisms used include representative bacteria, fungi and yeasts.
(§2) A representative selection of the test microorganisms were cultured in a nutrient broth, such as, for example, Eugon, commercially available from Difco Laboratories, Detroit, Michigan. Bacteria and Candida species were cultured for 24 hours at 32°-37° C. and fungi were cultured for approximately one week at 32° C. Inocula were prepared by suspending the growth or spores from a slant culture in sufficient sterile normal (0.9 percent) saline or Eugon broth, to yield cell or spore concentrations of 1,000,000 cells per milliliter. Anaerobic bacteria were cultured for 48-72 hours at 32°-37° C. in a thioglycollate containing medium, for example, Fluid Thioglycollate medium or NIH thioglycollate broth, commercially available from Difco Laboratories.
(§3) The compounds of the present invention were tested for activity against bacteria, yeasts and fungi by the agar incorporation method described below. MA 1347, 3-(dimethylaminomethyl)flavanone (disclosed in U.S. Pat. No. 3,753,985) was used as a comparative standard along with controls for each solvent system used.
(§4) A series of agar plates containing two-fold dilutions of each compound to be tested, ranging in concentration from 100 to 3.1 mcg/ml of agar medium was prepared. Aliquots of each concentration (100, 50, 25, 12.5, 6.2, and 3.1) prepared in N,N-dimethylformamide or 50 percent aqueous DMF were added to liquid Eugon agar at 48° C. (one part test solution to 100 parts agar). In some cases, tests with further dilutions to 0.125 mcg/ml were conducted. The agar medium, containing the 3-methylene flavanone or chromanone compound to be tested, was then dispensed into petri dishes and allowed to solidify. The solidified plates were kept overnight at room temperatures to dry the surface of the agar.
(§5) The agar plates were then inoculated with a drop of the standardized cell or spore suspension. Inoculated plates were incubated at 32° C. The inhibition end-point or minimum inhibitory concentration (MIC) shown in Table D represent the lowest concentration of test compound which inhibited the growth of the microorganism. Visual determination of growth inhibition was used. Bacteria and yeast end-points were determined after 24 hours incubation; molds, dermatophytes and anaerobes after 48-72 hours incubation. MIC values shown as ranges represent the extremes found in repeat assays. Virtually all such values were written plus or minus one dilution, the accepted variation of a two-fold dilution assay.

A. fumigatus NRRL 165 = test: MIC, agar incorporation method; format: cell-based; conditions: Aspergillus fumigatus, NRRL165, 32° C., 48-72 hours, read-out: Minimal Inhibitory Concentration
Protocol: as §1, §2, §3, §4, §5

[1] = test system: Aspergillus niger ATCC 16404; test: MIC, agar incorporation method; format: cell-based; conditions: ATCC16404, 32° C., 48-72 hours, read-out: Minimal Inhibitory Concentration
Protocol: as §1, §2, §3, §4, §5

C. albicans NRRL Y-477 = test: MIC, agar incorporation method; format: cell-based; conditions: Candida albicans, NRRLY477, 32° C., 24 hours, read-out: Minimal Inhibitory Concentration
Protocol: as §1, §2, §3, §4, §5

C. guillermondii VM 42 = test: MIC, agar incorporation method; format: cell-based; conditions: 32° C., 24 hours; read-out: Minimal Inhibitory Concentration
Protocol: as §1, §2, §3, §4, §5

C. krusei VM 29B = test: MIC, agar incorporation method; format: cell-based; conditions: Pichia kudriavzevii, VM29B; 32° C., 24 hours; read-out: Minimal Inhibitory Concentration
Protocol: as §1, §2, §3, §4, §5

C. tropicalis NRRL Y1410 = test: MIC, agar incorporation method; format: cell-based; conditions: Candida tropicalis, NRRLY1410; 32° C., 24 hours; read-out: Minimal Inhibitory Concentration
Protocol: as §1, §2, §3, §4, §5

[2] = test system: Candida albicans ATCC 10231; test: MIC, agar incorporation method; format: cell-based; conditions: ATCC10231, C. albicans ATCC 10231, 32° C., 24 hours, read-out: Minimal Inhibitory Concentration
Protocol: as §1, §2, §3, §4, §5

[3] = test system: Escherichia coli ATCC 8739; test: MIC, agar incorporation method; format: cell-based; conditions: ATCC8739, 32° C., 24 hours, read-out: Minimal Inhibitory Concentration
Protocol: as §1, §2, §3, §4, §5

[4] = test system: Microsporum gypseum ATCC 14683; test: MIC, agar incorporation method; format: cell-based; conditions: 48-72 hours; for MIC: Nannizzia gypsea, ATCC14683, 32° C., read-out: Minimal Inhibitory Concentration
Protocol: as §1, §2, §3, §4, §5

[5] = test system: Proteus vulgaris NRRL B123; test: MIC, agar incorporation method; format: cell-based; conditions: NRRLB123, 32° C., 24 hours, read-out: Minimal Inhibitory Concentration
Protocol: as §1, §2, §3, §4, §5

[6] = test system: Pseudomonas aeruginosa ATCC 14502; test: MIC, agar incorporation method; format: cell-based; conditions: ATCC14502, 32° C., 24 hours, read-out: Minimal Inhibitory Concentration
Protocol: as §1, §2, §3, §4, §5

[7] = test system: Sarcina subflava ATCC 7468; test: MIC, agar incorporation method; format: cell-based; conditions: ATCC7468, 32° C., 24 hours, read-out: Minimal Inhibitory Concentration
Protocol: as §1, §2, §3, §4, §5

[8] = test system: Staphylococcus aureus ATCC 6538; test: MIC, agar incorporation method; format: cell-based; conditions: S. aureus ATCC 6538, 32° C., 24 hours; for MIC: Staphylococcus aureus, ATCC6538, read-out: Minimal Inhibitory Concentration
Protocol: as §1, §2, §3, §4, §5

[9] = test system: Streptococcus faecalis ATCC 10541; test: MIC, agar incorporation method; format: cell-based; conditions: Enterococcus faecalis, ATCC10541; 32° C., 24 hours; read-out: Minimal Inhibitory Concentration
Protocol: as §1, §2, §3, §4, §5

T. mentagrophytes CDC = test: MIC, agar incorporation method; format: cell-based; conditions: Trichophyton mentagrophytes, 32° C., 48-72 hours, read-out: Minimal Inhibitory Concentration
Protocol: as §1, §2, §3, §4, §5

T. mentagrophytes TM-2 = test: MIC, agar incorporation method; format: cell-based; conditions: Trichophyton mentagrophytes, TM2, 32° C., 48-72 hours, read-out: Minimal Inhibitory Concentration
Protocol: as §1, §2, §3, §4, §5

T. rubrum ATCC 10218 = test: MIC, agar incorporation method; format: cell-based; conditions: Trichophyton rubrum, ATCC10218; 32° C., 48-72 hours; read-out: Minimal Inhibitory Concentration
Protocol: as §1, §2, §3, §4, §5

[10] = test system: Trichophyton mentagrophytes ATCC 4807; test: MIC, agar incorporation method; format: cell-based; conditions: ATCC4807, 32° C., 48-72 hours, read-out: Minimal Inhibitory Concentration
Protocol: as §1, §2, §3, §4, §5

S. aureus NRRL B2747 [11] = test: MIC, agar incorporation method; format: cell-based, Staphylococcus aureus; conditions: 24 hours; for MIC: Staphylococcus aureus, NRRLB2747, 32° C., read-out: Minimal Inhibitory Concentration
Protocol: as §1, §2, §3, §4, §5

[12] = test system: Clostridium acetobutylicum ATCC 824; test: MIC, agar incorporation method, anaerobic; format: cell-based; conditions: ATCC824, 48 h, 48 hours at 35° C., GasPak Anaerobic Jar, read-out: Minimal Inhibitory Concentration
Protocol: as §1, §2, §3, §4, §5
(§6) *Anaerobic: 48 hours incubation at 35° C. GasPak Anaerobic Jar

[13] = test system: Propionobacterium acnes ATCC 6919; test: MIC, agar incorporation method, anaerobic; format: cell-based; conditions: 48 hours at 35° C., GasPak Anaerobic Jar, read-out: Minimal Inhibitory Concentration
Protocol: as §1, §2, §3, §4, §5, §6

T. tonsurans ATCC 10217 = test: MIC, agar incorporation method; format: cell-based; conditions: Trichophyton tonsurans, ATCC10217; 32° C., 48-72 hours; read-out: Minimal Inhibitory Concentration
Protocol: as §1, §2, §3, §4, §5

[14] = test system: Bacteriodides fragilis ATCC 8482; test: MIC, agar incorporation method, anaerobic; format: cell-based; conditions: 48 hours at 35° C., GasPak Anaerobic Jar, read-out: Minimal Inhibitory Concentration
Protocol: as §1, §2, §3, §4, §5, §6

[15] = test system: Clostridium sporogenes ATCC 11437; test: MIC, agar incorporation method, anaerobic; format: cell-based; conditions: ATCC11437, 48 hours at 35° C., GasPak Anaerobic Jar, read-out: Minimal Inhibitory Concentration
Protocol: as §1, §2, §3, §4, §5, §6

S. aureus NRRL B2747 [16] = test: MIC, agar incorporation method, anaerobic; format: cell-based; conditions: Staphylococcus aureus, NRRLB2747, 48 hours at 35° C., GasPak Anaerobic Jar, read-out: Minimal Inhibitory Concentration
Protocol: as §1, §2, §3, §4, §5, §6

| Structure (SMILES) | MIC (A. fumigatus NRRL 163) | MIC [1] | MIC (C. albicans NRRL Y-477) | MIC (C. guillermondii VM 42) | MIC (C. krusei VM 29B) | MIC (C. tropicalis NRRL Y1410) | MIC [2] | MIC [3] | MIC [5] | MIC [6] | MIC [7] | MIC [8] | MIC [9] | MIC (T. mentagrophytes CDC) | MIC (T. mentagrophytes TM-2) | MIC (T. rubrum ATCC 10218) | MIC [10] | MIC (S. aureus NRRL B2747 [11]) | MIC [12] | MIC [13] | also measured |
| --- | --- | --- | --- | --- | --- | --- | --- | --- | --- | --- | --- | --- | --- | --- | --- | --- | --- | --- | --- | --- | --- |
| C=C1C(=O)c2ccccc2OC1c1ccc(C)cc1 (stereo not shown) [Ex. 13, 4'-methyl-3-methylene flavanone] | 12.5 mg/L (≈ 49.9 µM) | 50 mg/L (≈ 200 µM) | 25 mg/L (≈ 99.9 µM) | 50 mg/L (≈ 200 µM) | 25 mg/L (≈ 99.9 µM) | 50 mg/L (≈ 200 µM) | 25 mg/L (≈ 99.9 µM) | > 100 mg/L | > 100 mg/L | > 100 mg/L | 12.5 mg/L (≈ 49.9 µM) | 6.2 mg/L (≈ 24.8 µM) | 50 mg/L (≈ 200 µM) | 6.2 mg/L (≈ 24.8 µM) | 6.2 mg/L (≈ 24.8 µM) | ≤ 3.1 mg/L | 6.2 mg/L (≈ 24.8 µM) | 6.2 mg/L (≈ 24.8 µM) | ≤ 100 mg/L | ≤ 100 mg/L | MIC (A. fumigatus NRRL 165): 50 mg/L (≈ 200 µM); MIC [4]: 6.2 mg/L (≈ 24.8 µM) |
| C=C1C(=O)c2ccccc2OC1(c1ccccc1)c1ccccc1 [Ex. 20, 3-methylene-2-phenyl flavanone] | > 100 mg/L | > 100 mg/L | > 100 mg/L | > 100 mg/L | > 100 mg/L | > 100 mg/L | > 100 mg/L | > 100 mg/L | > 100 mg/L | > 100 mg/L | 1 mg/L (≈ 3.2 µM) | 0.5 mg/L (≈ 1.6 µM) | 0.78 to 1 mg/L (≈ 2.5 to 3.2 µM) | > 100 mg/L | > 100 mg/L | > 100 mg/L | > 100 mg/L | 0.25 to 0.5 mg/L (≈ 0.8 to 1.6 µM) | 1 mg/L (≈ 3.2 µM) | 0.78 to 3.1 mg/L (≈ 2.5 to 9.92 µM) | MIC (A. fumigatus NRRL 165): > 100 mg/L; MIC (T. tonsurans ATCC 10217): > 100 mg/L; MIC [14]: 0.125 mg/L (≈ 0.4 µM); MIC [15]: 0.5 mg/L (≈ 1.6 µM); MIC (S. aureus NRRL B2747 [16]): 0.25 to 1 mg/L (≈ 0.8 to 3.2 µM) |
| CN(C)CC1C(=O)c2ccccc2OC1c1ccccc1 (stereo not shown) [MA 1347, 3-(dimethylaminomethyl)flavanone, reference compound] | 6.2 to 25 mg/L (≈ 22 to 88.9 µM) | 50 mg/L (≈ 178 µM) | 25 mg/L (≈ 88.9 µM) | 50 to 100 mg/L (≈ 178 to 355 µM) | 12.5 to 25 mg/L (≈ 44.4 to 88.9 µM) | 50 to 100 mg/L (≈ 178 to 355 µM) | 25 to 50 mg/L (≈ 88.9 to 178 µM) | > 100 mg/L | > 100 mg/L | > 100 mg/L | 12.5 mg/L (≈ 44.4 µM) | 6.2 to 12.5 mg/L (≈ 22 to 44.4 µM) | 50 mg/L (≈ 178 µM) | 6.2 to 12.5 mg/L (≈ 22 to 44.4 µM) | 6.2 to 12.5 mg/L (≈ 22 to 44.4 µM) | 3.1 to 12.5 mg/L (≈ 11 to 44.4 µM) | 6.2 to 12.5 mg/L (≈ 22 to 44.4 µM) | 6.2 to 12.5 mg/L (≈ 22 to 44.4 µM) | ≤ 100 mg/L | 12.5 mg/L (≈ 44.4 µM) | Minimal Inhibitory Concentration (A. fumigatus NRRL 163; NRRL 163): 5.2 to 25 µg/mL; Minimal Inhibitory Concentration ([4]; 32° C.): 6.12 to 12.5 µg/mL; MIC [4]: 6.2 to 12.5 mg/L (≈ 22 to 44.4 µM); Minimal Inhibitory Concentration [8]: 6.2 to 12.5 µg/mL; MIC (T. tonsurans ATCC 10217): 6.2 mg/L (≈ 22 µM); Minimal Inhibitory Concentration (S. aureus NRRL B2747 [11]; 32° C.): 6.2 to 12.5 µg/mL; MIC [14]: 3.1 mg/L (≈ 11 µM); MIC [15]: 6.2 mg/L (≈ 22 µM); MIC (S. aureus NRRL B2747 [16]): 25 mg/L (≈ 88.9 µM) |
